Measurements taken from patent US7038049B2, “Haloanilino quinazolines and therapeutic use thereof” (Parker Hughes Institute, priority 1999, dated 2006).

Tests used:
Format in all cases: cell-based
[1] = test system: NALM-6 human leukemia cells; experiment: MTT cytotoxicity assay, NALM-6; conditions: Homo sapiens
Protocol: (§1) The cytotoxicity assay of various compounds against human tumor cell lines was performed using the MTT (3-[4,5-dimethylthiazol-2-yl]-2,5-diphenyl tetrazolium bromide) assay (Boehringer Mannheim Corp., Indianapolis, Ind.). Briefly, exponentially growing tumor cells were seeded into a 96-well plate at a density of 2.5×10^4 cells/well and incubated for 36 hours at 37° C. prior to drug exposure. On the day of treatment, culture medium was carefully aspirated from the wells and replaced with fresh medium containing the quinazoline compounds at concentrations ranging from 0.1 to 250 μM. Triplicate wells were used for each treatment.
(§2) Human cell lines were obtained from American Type Culture Collection (Rockville, Md.) and maintained as a continuous cell line in Dulbecco's modified Eagles' medium supplemented with 10% fetal bovine serum and antibiotics. Cells used in this study include human leukemia cells (NALM-6 and MOLT-3), human breast cancer cells ([…]), human prostate cancer cells (PC3), and human brain tumor cells (U373).
(§3) The cells were incubated with the various compounds for 24–36 hours at 37° C. in a humidified 5% CO2 atmosphere. To each well, 10 μl of MTT (0.5 mg/ml final concentration) was added and the plates were incubated at 37° C. for 4 hours to allow MTT to form formazan crystals by reacting with metabolically active cells. The formazan crystals were solubilized overnight at 37° C. in a solution containing 10% SDS in 0.01 M HCl. The absorbance of each well was measured in a microplate reader (Labsystems) at 540 nm and a reference wavelength of 690 nm. To translate the OD 540 values into the number of live cells in each well, the OD 540 values were compared to those on standard OD 540—versus—cell number curves generated for each cell line. The percent survival was calculated using the formula:
(§4) [formula] The IC50 values were calculated by non-linear regression analysis. Detection of Apoptosis

[2] = test system: BT20 human breast cancer cells; experiment: MTT cytotoxicity assay, BT20; conditions: Homo sapiens
Protocol: as §1, §2, §3, §4

[3] = test system: U373 human brain tumor cells; experiment: MTT cytotoxicity assay, U373; conditions: Homo sapiens, U373 MG, Table 5, fluoro-substituted, value ± spread
Protocol: as §1, §2, §3, §4

[4] = test system: MOLT-3 human leukemia cells; experiment: MTT cytotoxicity assay, MOLT-3; conditions: Homo sapiens
Protocol: as §1, §2, §3, §4

[5] = test system: PC3 human prostate cancer cells; experiment: MTT cytotoxicity assay, PC3; conditions: Table 5, fluoro-substituted, value ± spread
Protocol: as §1, §2, §3, §4

[6] = NALM-6, Table 5, fluoro-substituted, value ± spread
[7] = BT-20, Table 5, fluoro-substituted, value ± spread
[8] = MOLT-3, Table 5, fluoro-substituted, value ± spread

SMILES	IC50 [1, 6]	IC50 [2, 7]	IC50 [3]	IC50 [4, 8]	IC50 [5]	IC50 ([1]; NALM-6, Table 1, bromo substituted, 24–36 hours)	IC50 ([2]; BT-20, Table 1, bromo substituted, 24–36 hours)	IC50 ([4]; MOLT-3, Table 1, bromo substituted, 24–36 hours)
COc1cc2ncnc(Nc3ccc(C(c4ccc(N)cc4)(C(F)(F)F)C(F)(F)F)cc3)c2cc1OC [HI-P352, 4-{4′-[2″-(4′′′-Aminophenyl)-hexafluoropropyl]phenyl}amino-6,7-dimethoxyquinazoline]	7.1 ± 1.8 µM	50.3 ± 14.8 µM	65.5 ± 11.2 µM	21.8 ± 1.7 µM	72.6 ± 2.5 µM			
COc1cc2ncnc(Nc3c(F)c(F)c(Br)c(F)c3F)c2cc1OC [HI-P144, 4-(2′,3′,5′,6′-tetrafluoro-4′-bromophenyl)amino-6,7-dimethoxyquinazoline]	28.1 ± 2.6 µM	63.4 ± 5.5 µM	49.5 ± 11.3 µM	24.9 ± 3.7 µM	> 250 µM			
COc1cc2ncnc(Nc3cc(C(F)(F)F)cc(C(F)(F)F)c3)c2cc1OC [HI-P366, 4-(3′,5′-Ditrifluoromethylphenyl)-amno-6,7-dimethoxyquinazoline]	52.8 ± 14 µM	61.7 ± 12.1 µM	55.5 ± 13.2 µM	137 ± 10.3 µM	> 250 µM			
COc1cc2ncnc(Nc3ccc(S(=O)(=O)F)cc3)c2cc1OC [HI-P232, 4-[4′-benzenesulfanilylfluoride]-amino-6,7-dimethoxyquinazoline]	41.4 ± 6.9 µM	70.5 ± 8.2 µM	208 ± 18.1 µM	43.6 ± 2.3 µM	88.9 ± 17.2 µM			
COc1cc2ncnc(Nc3ccccc3C(F)(F)F)c2cc1OC [HI-P228, 4-(2′-Trifluoromethylphenyl)-amino-6,7-dimethoxyquinazoline]	57.3 ± 24.8 µM	> 250 µM	> 250 µM	237 ± 4.8 µM	> 250 µM			
COc1cc2ncnc(Nc3ccc(F)cc3)c2cc1OC [HI-P221, 4-(4′-Fluorophenyl)-amino-6,7-dimethoxyquinazoline]	100 ± 4.8 µM	30.7 ± 7.9 µM	28.8 ± 12.7 µM	98.7 ± 3.8 µM	> 250 µM			
COc1cc2ncnc(Nc3ccc(Br)cc3F)c2cc1OC [HI-P214, 4-(2′-Fluoro-4′-bromophenyl)-amino-6,7-dimethoxyquinazoline]	> 250 µM	> 250 µM	> 250 µM	> 250 µM	> 250 µM	> 250 µM	> 250 µM	> 250 µM
COc1cc2ncnc(Nc3ccc(O)c(F)c3)c2cc1OC [HI-P369, 4-(4′-Hydroxyl-3′-fluorophenyl)-amino-6,7-dimethoxyquinazoline]	> 250 µM	> 250 µM	> 250 µM	> 250 µM	> 250 µM			
COc1cc2ncnc(Nc3cccc(F)c3)c2cc1OC [HI-P224, 4-(3′-fluorophenyl)amino-6,7-dimethoxyquinazoline]	20.2 ± 8.1 µM	58.3 ± 5.8 µM	22.4 ± 5.9 µM	23.3 ± 7.7 µM	> 250 µM			
COc1cc2ncnc(Nc3ccccc3F)c2cc1OC [HI-P264, 4-(2′-Fluorophenyl)-amino-6,7-dimethoxyquinazoline]	47 ± 19.5 µM	33.3 ± 7.5 µM	53.3 ± 6.7 µM	70.9 ± 17.3 µM	> 250 µM			
COc1cc2ncnc(Nc3ccc(C(F)(F)F)cc3)c2cc1OC [HI-P223, 4-(4′-Trifluoromethylphenyl)-amino-6,7-dimethoxyquinazoline]	39.5 ± 8 µM	27.6 ± 8.6 µM	32.1 ± 3.9 µM	40.8 ± 15.1 µM	> 250 µM			
COc1cc2ncnc(Nc3ccccc3OC(F)(F)F)c2cc1OC [HI-P365, 4-(2′-Trifluoromethoxylphenyl)-amino-6,7-dimethoxyquinazoline]	86.5 ± 3.4 µM	> 250 µM	> 250 µM	111 ± 7.5 µM	> 250 µM			
COc1cc2ncnc(Nc3cccc(C(F)(F)F)c3)c2cc1OC [HI-P218, 4-(3′-Trifluoromethylphenyl)-amino-6,7-dimethoxyquinazo-line]	37 ± 5.8 µM	37.6 ± 5.2 µM	29.9 ± 7.3 µM	33.2 ± 3.3 µM	126 ± 5.8 µM			
